Experimental data: patent US20200325177A1, “METHODS OF MAKING STREPTOGRAMIN COMPOSITIONS AND THE USE THEREOF” (THE REGENTS OF THE UNIVERSITY OF CALIFORNIA, priority 2017, published 2020)
≈ marks a conversion by molar mass, not a printed value. Like-named read-outs stand apart in the source and are kept apart here.

Legend:
Assay type in all cases: cell-based
Gram-Negative Organisms = assay: microbe, parasite or virus in culture
E. faecium VRE; vanA = assay: MIC, Gram-positive bacteria: E. faecium VRE; vanA; details: Enterococcus faecium, column 3, read-out: Minimal Inhibitory Concentration (MIC) E. faecium VRE
S. aureus = assay: MIC, Gram-positive bacteria: S. aureus (strains not named); details: Staphylococcus aureus, read-out: Minimal Inhibitory Concentration (MIC) S. aureus
E. faecalis = assay: MIC, Gram-positive bacteria: E. faecalis; details: Enterococcus faecalis, column 1, read-out: Minimal Inhibitory Concentration (MIC) E. faecalis
S. pneumoniae = assay: MIC, Gram-positive bacteria: S. pneumoniae; details: Streptococcus pneumoniae, column 10, read-out: Minimal Inhibitory Concentration (MIC) S. pneumoniae
E. faecium ATCC 35667 = assay: MIC, Gram-positive bacteria: E. faecium ATCC 35667; details: Enterococcus faecium, ATCC35667, column 2, read-out: Minimal Inhibitory Concentration (MIC) E. faecium ATCC 35667
P. aeruginosa ATCC 27853 = assay: MIC, Gram-negative bacteria: P. aeruginosa ATCC 27853; details: Pseudomonas aeruginosa, ATCC27853, read-out: Minimal Inhibitory Concentration (MIC) P. aeruginosa ATCC 27853
[1] = system: S. aureus Vat A streptogramin; assay: MIC, Gram-positive bacteria: S. aureus Vat A streptogramin; details: Staphylococcus aureus; Gram-positive; column 5; read-out: Minimal Inhibitory Concentration (MIC) S. aureus Vat A streptogramin
H. influenzae ATCC 49247 = assay: MIC, Gram-negative bacteria: H. influenzae ATCC 49247; details: Haemophilus influenzae, ATCC49247, read-out: Minimal Inhibitory Concentration (MIC) H. influenzae ATCC 49247
[2] = system: P. aeruginosa MDR clinical isolate; assay: MIC, Gram-negative bacteria: P. aeruginosa MDR clinical isolate; details: Pseudomonas aeruginosa, read-out: Minimal Inhibitory Concentration (MIC) P. aeruginosa MDR clinical isolate
[3] = system: S. aureus Linezolid-resistant; cfr; assay: MIC, Gram-positive bacteria: S. aureus Linezolid-resistant; cfr; details: Staphylococcus aureus, column 9, read-out: Minimal Inhibitory Concentration (MIC) S. aureus Linezolid-resistant
[4] = system: K. pneumoniae multidrug-resistant; assay: MIC, Gram-negative bacteria: K. pneumoniae multidrug-resistant; details: Klebsiella pneumoniae, read-out: Minimal Inhibitory Concentration (MIC) K. pneumoniae multidrug-resistant
[5] = Acinetobacter baumannii, ATCC19606, read-out: Minimal Inhibitory Concentration (MIC), A. baumannii ATCC 19606
[6] = Escherichia coli, ATCC25922, read-out: Minimal Inhibitory Concentration (MIC), E. coli ATCC 25922
[7] = Escherichia coli, read-out: Minimal Inhibitory Concentration (MIC), E. coli BAS2006, OMP C, OMP F
[8] = Escherichia coli, read-out: Minimal Inhibitory Concentration (MIC), E. coli olC efflux defective
[9] = Escherichia coli, read-out: Minimal Inhibitory Concentration (MIC), E. coli permeability mutant BAS1314, IMP4213ZAB::TN10
[10] = Klebsiella pneumoniae, ATCC43816, read-out: Minimal Inhibitory Concentration (MIC), K. pneumoniae ATCC 43816
[11] = first unnamed S. aureus column (c4)
[12] = fourth unnamed S. aureus column (c8)
[13] = second unnamed S. aureus column (c6)
[14] = third unnamed S. aureus column (c7)
[15] = Escherichia coli, read-out: Minimal Inhibitory Concentration (MIC), E. coli ΔompC768, KanR insert

SMILES | MIC (Gram-Negative Organisms; [5]) [µg/mL] | MIC (Gram-Negative Organisms; [6]) [µg/mL] | MIC (Gram-Negative Organisms; [7]) [µg/mL] | MIC (Gram-Negative Organisms; [8]) [µg/mL] | MIC (Gram-Negative Organisms; [9]) [µg/mL] | MIC (Gram-Negative Organisms; [10]) [µg/mL] | MIC (E. faecium VRE; vanA) [µg/mL] | MIC (S. aureus; [11]) [µg/mL] | MIC (S. aureus; [12]) [µg/mL] | MIC (S. aureus; [13]) [µg/mL] | MIC (S. aureus; [14]) [µg/mL] | MIC (E. faecalis) [µg/mL] | MIC (S. pneumoniae) [µg/mL] | MIC (E. faecium ATCC 35667) [µg/mL] | MIC (P. aeruginosa ATCC 27853) [µg/mL] | MIC [1] [µg/mL] | MIC (H. influenzae ATCC 49247) [µg/mL] | MIC [2] [µg/mL] | MIC [3] [µg/mL] | MIC [4] [µg/mL] | also measured
CC1=C\[C@@H](O)CC(=O)Cc2nc(co2)C(=O)N2CCC[C@@H]2C(=O)O[C@H]([C@@H](C)COC(=O)Nc2cccnc2)[C@H](C)/C=C/C(=O)NC\C=C\1 [SA0110067] | > 64 | > 64 | 64 (≈ 96.4 µM) | 8 (≈ 12.1 µM) | 32 (≈ 48.2 µM) | > 64 | > 64 | > 64 | 64 (≈ 96.4 µM) | > 64 | > 64 | > 64 | 32 (≈ 48.2 µM) | 32 (≈ 48.2 µM) | > 64 | > 64 | > 64 | > 64 | > 64 | > 64 | –
CC1=C\[C@@H](O)CC(=O)Cc2nc(co2)C(=O)N2CCC[C@@H]2C(=O)O[C@H]([C@@H](C)COC(=O)Nc2ccc(C(F)(F)F)cc2)[C@H](C)/C=C/C(=O)NC\C=C\1 [SA0110044] | > 64 | > 64 | > 64 | 16 (≈ 21.9 µM) | 16 (≈ 21.9 µM) | > 64 | > 64 | > 64 | 32 (≈ 43.8 µM) | > 64 | > 64 | > 64 | > 64 | 16 (≈ 21.9 µM) | > 64 | > 64 | > 64 | > 64 | > 64 | > 64 | –
CC1=C\[C@@H](O)CC(=O)Cc2nc(co2)C(=O)N2CCC[C@@H]2C(=O)O[C@H]([C@H](C)COC(=O)Nc2ccc(Br)nc2)[C@H](C)/C=C/C(=O)NC\C=C\1 [SA0110209] | > 64 | > 64 | > 64 | 2 (≈ 2.69 µM) | 2 (≈ 2.69 µM) | > 64 | > 64 | 16 (≈ 21.5 µM) | 16 (≈ 21.5 µM) | 16 (≈ 21.5 µM) | > 64 | > 64 | 16 (≈ 21.5 µM) | 16 (≈ 21.5 µM) | > 64 | > 64 | 8 (≈ 10.8 µM) | > 64 | > 64 | > 64 | MIC (Gram-Negative Organisms; [15]): > 64 µg/mL
CC1=C\[C@@H](O)CC(=O)Cc2nc(co2)C(=O)N2CCC[C@@H]2C(=O)O[C@H](C(C)C)[C@H](C)/C=C/C(=O)NC\C=C\1 [virginiamycin M2, Virginiamycin M2, reference compound] | > 64 | > 64 | 2 (≈ 3.79 µM) | 2 (≈ 3.79 µM) | 2 (≈ 3.79 µM) | > 64 | 8 (≈ 15.2 µM) | 16 (≈ 30.3 µM) | 8 (≈ 15.2 µM) | 16 (≈ 30.3 µM) | 32 (≈ 60.6 µM) | > 64 | 8 (≈ 15.2 µM) | 4 (≈ 7.58 µM) | > 64 | > 64 | 16 (≈ 30.3 µM) | > 64 | > 64 | > 64 | –
CC1=C\[C@@H](O)CC(=O)Cc2nc(co2)C(=O)N2CCC[C@@H]2C(=O)O[C@H]([C@H](C)CO)[C@H](C)/C=C/C(=O)NC\C=C\1 [SA0110170] | > 64 | > 64 | > 64 | 32 (≈ 58.9 µM) | 32 (≈ 58.9 µM) | > 64 | > 64 | > 64 | > 64 | > 64 | > 64 | > 64 | 64 (≈ 118 µM) | > 64 | > 64 | > 64 | 32 (≈ 58.9 µM) | > 64 | > 64 | > 64 | MIC (Gram-Negative Organisms; [15]): > 64 µg/mL
